From PMC6433934, “Preclinical Evaluation of Bispecific Adaptor Molecule Controlled Folate Receptor CAR-T Cell Therapy With Special Focus on Pediatric Malignancies” (Frontiers in Oncology, 2019)

Key:
FRα = target: T1, FRα (Homo sapiens, UniProt P15328); assay: 3H-EC17 cell-based radioligand binding, KB cells; conditions: ^3H-EC17, KB cells, 2 h at 37°C, from molecules bound per cell
T1 construct: KB (FRα-expressing human cervical carcinoma with HeLa markers); endogenous in cells; host or cells: KB cells (human cervical carcinoma with HeLa markers)
Method: Unless otherwise noted, all FR+ and FR-negative cancer cell lines were, respectively, maintained in RPMI-1640 medium (Gibco BRL) supplemented with 10% heat-inactivated fetal calf serum without (FFRPMI) or with (RPMI) 2.4 μM folic acid (FA). KB (FRα-expressing human cervical carcinoma with HeLa markers) and CHO-β (Chinese hamster ovary cells transfected with human FRβ) were used as the sources of FRα and FRβ for radioligand binding assays, respectively ([18]). MDA-MB-231 represents a FRα+ subclone of human TNBC cell line. For AML studies, the green fluorescent protein (GFP)-expressing isogenic pairs of FRβ-positive (THP1-FRβ) and FR-negative (THP1-FG12) cell lines were kindly provided by Dr. Manohar Ratnam (The University of Toledo, Toledo, OH). […]
The bispecific affinities of EC17 CAM were assessed using ^3H-EC17 in cell-based radioligand binding assays. […] The whole cell lysates were quantitated for the level of radioactivity and cellular protein content by standard Pierce BCA protein assay. The number of ^3H-EC17 molecules bound per cell was calculated to determine the dissociation constants (Kd) for FRα (KB) and FRβ (CHO-β), respectively. […] Afterwards, the cells were washed 4x with PBS, lysed with 0.1% Triton X-100 plus 0.1 N NaOH and counted in a scintillation counter. […]

MDA-MB-231 tumors = assay: EC17 dose finding safety study, tumor-bearing mice; type: in vivo, NSG mice; conditions: for higher IFNγ production in mouse plasma vs CAR-T cells only: all EC17 regimens
Method: All animal care and use were performed according to NIH guidelines and in compliance with protocols approved by the Purdue University Animal Use and Care Committee. Female 4 to 5-weeks-old NOD/SCID gamma (NSG™) mice (stock number: 005557) were purchased from The Jackson Laboratory (Bar Harbor, ME). Unless specifically indicated, all animals were maintained on a FA-deficient diet (TestDiet, St. Louis, MO) upon arrival and throughout the study. To establish subcutaneous xenografts, MDA-MB-231 and HOS-FRα were implanted in the right flank region at 2.5 × 10^6 and 1 × 10^6 cells per animal, respectively. For intravenous xenografts, THP1-FRβ cells were inoculated at 5 × 10^6 cells per animal. Subcutaneous tumors were measured 2–3 times per week with a caliper and calculated using the ellipsoidal formula (length x width^2)/2. […] All animal doses (CAR-T cells, EC17, sodium fluorescein) were given intravenously.
In a therapeutic setting, EC17 CAM can theoretically be given before or after CAR-T cell injection ([33]). For all intended purposes here, we administered the first dose of EC17 2–3.5 days after CAR-T cells to allow for an observation period of human T cells in tumor-bearing mice. Two batches of unsorted E2-CAR-T cells (23% or 39% EGFRt+, 1:1 CD4/CD8) were used for in vivo studies. On the day of infusion for each experiment (day 0), frozen CAR-T cells were quickly thawed at 37°C, washed 2x with Dulbecco's 1X PBS (pH 7.4) and injected into the tail veil at desired EGFRt+ E2-CAR-T cell doses. In addition, a small aliquot of CAR-T cells was analyzed by flow cytometry for CD4 to CD8 ratio and differentiation status of CAR-T cells. On the first day of EC17 dose, tumor-bearing animals were randomly assigned into groups according to their tumor sizes or the same number of days post intravenous implantation (i.e., THP1-FRβ).
For MDA-MB-231 studies, mice received a high dose (~10 million) of a “clinical facsimile” of E2-CAR-T cells (~39% EGFRt+) with a low differentiation profile. Two days later, we started them with 3 different treatment regimens of EC17 at an average tumor size of ~293 ± 39 mm^3. The EC17 dosing was given once-a-week (SIW) at 500 nmol/kg on Mondays, or as escalating doses of 5, 50, or 100, and 500 or 1,000 nmol/kg on Monday, Thursday, and Monday with a 6 day break in-between cycles. Control mice were left untreated (received CAR-T cells but no EC17). For comparison, a cohort of tumor-free littermates also received the same number of CAR-T cells without or with EC17 SIW at 500 nmol/kg. To study the effect of high dietary folate, two sets of NSG mice were placed on either a FA-replete diet (4 mg/kg, Envigo, Indianapolis, IN) or a FA-deficient diet (TestDiet, St. Louis, MO) upon arrival. On day 0, both sets of the mice received ~10 million of the same “clinical facsimile” CAR-T cells followed by no EC17 or EC17 SIW at 500 nmol/kg starting on day 3. On the first day of EC17 administration, MDA-MB-231 tumors size averaged around ~549 ± 184 mm^3 (280–918 mm^3) in FA-replete mice, and ~559 ± 165 mm^3 (356–961 mm^3) in FA-deficient mice.
Depending on the CAR-T cell dose and how EC17 is administered, tumor-bearing mice receiving FITC-specific CAR-T cells can experience severe CRS and varying degrees of body weight loss ([27], [33], [34]). […] On the days immediately following each EC17 dose, animals were scored and rescue agents such as sodium fluorescein, folic acid and leucovorin were used to mitigate CRS toxicity ([33]). […]

T1 sequence (P15328 25-257): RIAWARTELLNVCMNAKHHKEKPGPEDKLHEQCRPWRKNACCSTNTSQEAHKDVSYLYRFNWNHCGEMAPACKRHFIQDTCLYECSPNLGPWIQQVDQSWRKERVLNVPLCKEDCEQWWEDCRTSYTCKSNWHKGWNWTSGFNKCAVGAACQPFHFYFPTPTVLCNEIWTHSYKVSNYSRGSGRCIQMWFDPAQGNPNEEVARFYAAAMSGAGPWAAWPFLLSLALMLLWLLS

## Nc1nc2ncc(CNc3ccc(C(=O)NC(CCC(=O)NCCNC(=S)Nc4ccc(-c5c6ccc(=O)cc-6oc6cc(O)ccc56)c(C(=O)O)c4)C(=O)O)cc3)nc2c(=O)[nH]1 (stereo not drawn) [EC17, FA-(γ)-ethylenediamine-FITC]
FRα
  Kd: 1.7 nM
MDA-MB-231 tumors; EC17-treated cohorts (SIW 500, 5/50/500, 5/100/1000 nmol/kg), ~10 million E2-CAR-T cells
  cures: 100%
MDA-MB-231 tumors; day 11, ~20 h after previous EC17 dose, ~10 million E2-CAR-T cells
  higher IFNγ production in mouse plasma vs CAR-T cells only: ~ 30 x
MDA-MB-231 tumors; day 12, ~42 h after previous EC17 dose, ~10 million E2-CAR-T cells
  higher IFNγ production in mouse plasma vs CAR-T cells only: ~ 10 x
MDA-MB-231 tumors; tumor-bearing animals, ~10 million E2-CAR-T cells plus EC17, last measurement
  persistence of CAR-T cells in mouse blood: up to 54 days
MDA-MB-231 tumors; tumor-bearing, ~10 million E2-CAR-T cells, continued EC17 dosing independent of the regimen, 0–5 scale
  CRS grade: 2-3
